The text below walks through data of patent US20240059685A1, “PIEZO1 AGONISTS FOR THE PROMOTION OF BONE FORMATION” (BIOVENTURES, LLC, priority 2019, published 2024).

Molecules are shown by their SMILES. Entries after “also recorded” stand apart in the source; their conditions may differ.

Holding throughout (format): cell-based, murine
Assay [1] has as its target T1, Piezo1 (Mus musculus, UniProt E2JF22).
T1 construct: To identify Piezo1 stimulators, we treated MLO-Y4 cells with compounds; endogenous in cells; host or cells: MLO-Y4 (murine osteocyte-like cell line); control sh-Luc cells, with sh-Piezo1 knock-down cells as the specificity control
Kind of assay: Activation of Piezo1 in MLO-Y4 cells, overall conclusion from gene expression and calcium influx. As to the method: (§1) To identify Piezo1 stimulators, we treated MLO-Y4 cells with compounds Yoda1, YW-3-159, W-3-163, W-3-168-1, W-3-168-2, W-3-170, W-3-173-1, W-3-173-2, and YW-3-174. Gene expression of Wnt1, Ptgs2, and Tnfrsf11b was measured to determine the activation of Piezo1. In addition, intracellular calcium concentration was measured to determine the activity of Piezo1 channel. […] Yoda1 was used as a positive control in all experiments.

Assay [2] addresses T1, Piezo1. Kind of assay: Intracellular calcium concentration (Fluo-8) in control or Piezo1 knock-down MLO-Y4 cells. To be noted: Piezo1 knock-down (sh-Piezo1) MLO-Y4 cells, 10 μM. As to the method: Calcium concentration measurement. For intracellular calcium concentration measurement under fluid flow condition, 1×10^5 MLO-Y4 cells were seeded in a μ-Slide I Luer (0.4 mm) fluid chamber slide (MIDI, Germany) overnight. One hour before initiating fluid flow, the culture medium was removed and 100 μl Hank's Buffer with Hepes (HHBS) containing 4μM Fluo-8 (Abcam, Cambridge, MA) was added to the culture, as described by the manufacturer. The cells were then cultured at 37° C. for 30 minutes. After additional incubation at room temperature for 30 minutes, the chamber slide was placed under a confocal microscope in order to record the intensity of fluorescence of MLO-Y4 cells. Fluorescence was recorded for 3 minutes before starting fluid flow using HHBS and then recorded for another 10 minutes. The increase of intracellular concentration was calculated by subtracting the initial mean fluorescence. For measuring intracellular calcium concentration in cells with Yoda1 treatment, we cultured 4,000 MLO-Y4 cells per well in a 96-well-plate. We preloaded the cells with Fluo-8 as described by the manufacturer and read the intensity of the fluorescence using a Victor X3 multi-label plate reader (Perkin Elmer, Waltham, MA) immediately after the treatment. We measured the fluorescence for 5 minutes at an interval of 20 seconds. The percentage of increase in intracellular calcium concentration was calculated as (Fx-F0)/F0.
as §1
For orientation: A change in cytosolic calcium serves as a functional read-out for many receptors and channels.

For assay [3], the target named is T1, Piezo1. Kind of assay: qPCR gene expression of Wnt1, Ptgs2 and Tnfrsf11b in MLO-Y4 cells. The following applies: MLO-Y4 cells, 10 μM, 2 hours. How it is done:
Cell cultures. MLO-Y4 cells were cultured in α-MEM supplemented with 5% FBS, 5% BCS, and 1% penicillin/streptomycin/glutamine. Fifteen dynes/cm^2 oscillatory fluid shear stress was applied on MLO-Y4 cells at 1 Hz for 2 hours using an IBDI pump system (IBIDI, German). For Yoda1 treatment, cells were cultured in the presence of 10 μM Yoda1 (Sigma, St. Louis, MO) or DMSO for 2 hours. Immediately after the treatments, we isolated RNA from cells using RNeasy mini kit (Qiagen, German) for qPCR or RNA-seq analysis. To silence Piezo1, we generated Piezo1 shRNA expression plasmid using the following oligonucleotides in the pLKO.1-TRC cloning vector (Addgene Plasmid #10878, a gift from David Root): forward oligo: 5′-CCGGTC-[…]-3′ (SEQ ID NO: 1); reverse oligo: 5′-[…]-CGA-3′ (SEQ ID NO: 2) (Zhang et al., 2017). Yap1 shRNA (TRCN0000238432) and Taz shRNA (TRCN0000095951) were purchased from Sigma (St. Louis, MO). A shRNA against firefly luciferase was used as a control (Sigma, St. Louis, MO). For virus production, HEK293T cells were cultured in a 6-well culture plate and co-transfected with a total 3 μg of lentiviral shRNA vector, pMD2G (Addgene plasmid #12259, a gift from Didier Trono), and psPAX2 (Addgene plasmid #12260, a gift from Didier Trono) at the ratio of 2:0.9:0.4 using TransIT-LT1 transfection reagent (Mirus, Madison, WI). Culture media was changed 12 hours after transfection and viral supernatants were collected 48 hours after media change. Viral supernatants were filtered through a 0.45 μm filter and used immediately to transduce cells cultured in a 10 cm dish. Cells were then subjected to selection with G418 (100 μg/ml) or puromycin (25 μg/ml) for 5 days before treatment. To overexpress Piezo1 in MLO-Y4 cells, we transfected mPiezo1-IRES-eGFP (Addgene plasmid #80925, a gift from Ardem Patapoutian) into MLO-Y4 cells using TransIT-LT1 transfection reagent (Mirus, Madison, WI) and then treated these cells with 15 dynes/cm^2 oscillatory fluid shear stress at 1 Hz for 2 hours. Plasmids for expression of Cas9 and sgRNAs for knocking out Piezo1 in UAMS-32 cells were prepared by inserting oligonucleotides encoding the desired sgRNA sequence into the pX458 vector using the protocol recommended by the Zhang laboratory (Cong et al., 2013). Plasmids expressing Cas9 and Piezo1 sgRNAs were transfected into UAMS-32 cells using TransIT-LT1 transfection reagent (Mirus, Madison, WI). Cells were sorted into 96-well plates for single cell cloning 48 hours after transfection. Single cell colonies were then screened for homozygous deletion using the following primers: Forward: 5′-[…]-3′ (SEQ ID NO: 5), Reverse: 5′-[…]-3′ (SEQ ID NO: 6). All homozygous mutant cell colonies were then pooled together for further analysis. Cas9 transfected cells were used as a control. All in vitro cell culture experiments were performed three times with three technical replicates.
Quantitative PCR. Organs and whole bones were harvested from animals, removed of soft tissues, and stored immediately in liquid nitrogen. We prepared osteocyte-enriched bone by removing the ends of femurs and tibias and then flushing the bone marrow with PBS. We then scraped the bone surface with a scalpel and froze them in liquid nitrogen for later RNA isolation, or decalcified them for genomic DNA isolation. We isolated total RNA using TRIzol (Life technologies, NY), according to the manufacturer's instructions and prepared cDNA using High Capacity first strand cDNA synthesis kit (Life Technologies). We performed quantitative RT-PCR using the following Taqman assays from Applied Biosystems: Piezo1 (Mm01241549_m1); Piezo2 (Mm01265861_m1); Ptgs2 (Mm00478374_m1); Cyr61 (Mm00487498_m1); Wnt1 (Mm01300-555_g1); Yap1 (Mm011432-63_m1); Taz (Mm01289583_m1); Tnfsf11 Mm00441906_m1; Tnfrsf11b (Mm00435452_m1); Sost (Mm00470479_m1); and ribosomal protein S2 (Mrps2) (Mm00475529_m1). We calculated relative mRNA amounts using the ΔCt method (Livak and Schmittgen, 2001). […]

T1 sequence (E2JF22 whole entry): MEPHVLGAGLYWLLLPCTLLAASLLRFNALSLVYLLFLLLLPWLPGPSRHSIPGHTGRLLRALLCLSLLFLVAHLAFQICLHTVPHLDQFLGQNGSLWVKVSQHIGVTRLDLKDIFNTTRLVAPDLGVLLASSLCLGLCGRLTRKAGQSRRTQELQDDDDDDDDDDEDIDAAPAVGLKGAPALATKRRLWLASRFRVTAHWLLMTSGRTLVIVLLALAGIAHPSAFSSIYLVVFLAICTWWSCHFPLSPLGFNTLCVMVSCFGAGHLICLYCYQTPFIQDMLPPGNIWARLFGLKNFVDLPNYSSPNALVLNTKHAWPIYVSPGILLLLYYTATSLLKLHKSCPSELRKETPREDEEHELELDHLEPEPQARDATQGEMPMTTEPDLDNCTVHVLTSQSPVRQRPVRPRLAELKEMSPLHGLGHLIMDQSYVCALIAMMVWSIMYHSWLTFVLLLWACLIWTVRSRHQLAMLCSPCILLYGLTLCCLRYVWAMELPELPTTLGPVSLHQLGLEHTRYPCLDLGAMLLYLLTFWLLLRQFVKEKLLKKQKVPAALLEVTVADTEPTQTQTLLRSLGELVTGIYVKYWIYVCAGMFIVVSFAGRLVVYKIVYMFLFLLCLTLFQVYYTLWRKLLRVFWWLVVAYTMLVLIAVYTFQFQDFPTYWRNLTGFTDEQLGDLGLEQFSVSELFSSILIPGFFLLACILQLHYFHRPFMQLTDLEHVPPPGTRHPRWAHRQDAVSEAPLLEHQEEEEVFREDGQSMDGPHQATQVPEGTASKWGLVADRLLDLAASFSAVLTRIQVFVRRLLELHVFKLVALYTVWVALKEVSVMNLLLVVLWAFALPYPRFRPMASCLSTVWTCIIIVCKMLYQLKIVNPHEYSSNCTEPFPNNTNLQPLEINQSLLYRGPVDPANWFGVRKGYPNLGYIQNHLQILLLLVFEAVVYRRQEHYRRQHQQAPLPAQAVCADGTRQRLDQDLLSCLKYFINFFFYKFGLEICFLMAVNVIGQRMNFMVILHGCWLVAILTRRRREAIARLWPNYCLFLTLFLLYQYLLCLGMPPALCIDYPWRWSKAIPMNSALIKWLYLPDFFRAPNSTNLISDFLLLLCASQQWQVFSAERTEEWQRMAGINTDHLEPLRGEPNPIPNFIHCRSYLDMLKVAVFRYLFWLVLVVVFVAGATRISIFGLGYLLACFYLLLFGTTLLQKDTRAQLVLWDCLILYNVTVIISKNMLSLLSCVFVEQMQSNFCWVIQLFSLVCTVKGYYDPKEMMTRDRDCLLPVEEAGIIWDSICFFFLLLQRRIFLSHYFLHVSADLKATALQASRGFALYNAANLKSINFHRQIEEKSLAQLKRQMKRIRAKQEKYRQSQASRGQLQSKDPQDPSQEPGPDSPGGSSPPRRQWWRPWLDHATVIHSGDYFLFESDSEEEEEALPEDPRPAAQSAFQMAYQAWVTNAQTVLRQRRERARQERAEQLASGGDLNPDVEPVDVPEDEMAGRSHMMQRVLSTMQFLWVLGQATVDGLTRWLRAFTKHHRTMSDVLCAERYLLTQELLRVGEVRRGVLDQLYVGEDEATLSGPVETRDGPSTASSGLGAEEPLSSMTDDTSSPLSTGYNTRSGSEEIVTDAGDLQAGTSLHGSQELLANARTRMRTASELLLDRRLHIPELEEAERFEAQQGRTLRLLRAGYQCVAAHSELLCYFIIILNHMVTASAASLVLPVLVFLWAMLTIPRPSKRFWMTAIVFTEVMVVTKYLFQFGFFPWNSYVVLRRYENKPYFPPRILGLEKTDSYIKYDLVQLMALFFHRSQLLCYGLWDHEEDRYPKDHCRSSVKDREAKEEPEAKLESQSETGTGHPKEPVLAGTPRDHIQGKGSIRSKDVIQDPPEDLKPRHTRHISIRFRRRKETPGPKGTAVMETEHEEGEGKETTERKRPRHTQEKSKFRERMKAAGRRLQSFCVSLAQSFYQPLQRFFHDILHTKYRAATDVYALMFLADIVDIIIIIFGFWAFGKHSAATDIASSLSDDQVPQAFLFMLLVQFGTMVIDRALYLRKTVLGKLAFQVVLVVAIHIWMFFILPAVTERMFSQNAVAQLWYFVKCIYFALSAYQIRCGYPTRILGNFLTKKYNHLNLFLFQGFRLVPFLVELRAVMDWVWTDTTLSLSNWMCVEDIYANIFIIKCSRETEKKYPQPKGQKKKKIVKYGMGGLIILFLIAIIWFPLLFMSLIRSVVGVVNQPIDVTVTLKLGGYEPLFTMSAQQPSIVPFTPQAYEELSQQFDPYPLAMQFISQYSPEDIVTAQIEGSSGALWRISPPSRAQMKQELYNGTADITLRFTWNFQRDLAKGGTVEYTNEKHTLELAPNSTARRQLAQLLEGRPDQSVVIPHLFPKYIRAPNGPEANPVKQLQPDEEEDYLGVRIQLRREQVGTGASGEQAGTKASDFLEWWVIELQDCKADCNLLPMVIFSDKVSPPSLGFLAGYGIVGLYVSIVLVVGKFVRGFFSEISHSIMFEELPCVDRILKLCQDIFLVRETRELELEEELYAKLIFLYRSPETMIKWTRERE

As for `Clc1ccnc(Cl)c1CSc1nnc(-c2cnccn2)s1` [YW-3-159], the “Piezo1 agonist activity (conclusion in words)” value at Piezo1 [1] (MLO-Y4 cells) is “potent agonists for Piezo1; also recorded: potent and specific Piezo1 agonists”. In addition, on Piezo1 [1] (MLO-Y4 cells in vitro), the “activity in activating Piezo1 compared to Yoda1” value is given as “comparable or superior activity”. Also, on Piezo1 [2], the “calcium influx / increase of intracellular calcium in Piezo1 knock-down cells” value is “completely blocked; also recorded: loss of their ability to stimulate calcium influx”. In addition, on Piezo1 [3], the “Ptgs2 expression compared with vehicle” value is “higher Ptgs2 expression”, the “Tnfrsf11b expression compared with vehicle” value is recorded as “higher Tnfrsf11b expression” and the “Wnt1 expression compared with vehicle” value is given as “higher Wnt1 expression”.
